According to publication PMC9873984, “Membrane cholesterol regulates inhibition and substrate transport by the glycine transporter, GlyT2” (Life Science Alliance, 2023):
Changes are numbered by the printed parent chain.

What was measured:
GlyT2 F515W mutant = molecular target: T1, GlyT2 F515W mutant (Homo sapiens, UniProt Q9Y345, F515W); conditions: read-out: Glycine EC50; F515W (TM7)
T1 sequence (Q9Y345 1-797 F515W): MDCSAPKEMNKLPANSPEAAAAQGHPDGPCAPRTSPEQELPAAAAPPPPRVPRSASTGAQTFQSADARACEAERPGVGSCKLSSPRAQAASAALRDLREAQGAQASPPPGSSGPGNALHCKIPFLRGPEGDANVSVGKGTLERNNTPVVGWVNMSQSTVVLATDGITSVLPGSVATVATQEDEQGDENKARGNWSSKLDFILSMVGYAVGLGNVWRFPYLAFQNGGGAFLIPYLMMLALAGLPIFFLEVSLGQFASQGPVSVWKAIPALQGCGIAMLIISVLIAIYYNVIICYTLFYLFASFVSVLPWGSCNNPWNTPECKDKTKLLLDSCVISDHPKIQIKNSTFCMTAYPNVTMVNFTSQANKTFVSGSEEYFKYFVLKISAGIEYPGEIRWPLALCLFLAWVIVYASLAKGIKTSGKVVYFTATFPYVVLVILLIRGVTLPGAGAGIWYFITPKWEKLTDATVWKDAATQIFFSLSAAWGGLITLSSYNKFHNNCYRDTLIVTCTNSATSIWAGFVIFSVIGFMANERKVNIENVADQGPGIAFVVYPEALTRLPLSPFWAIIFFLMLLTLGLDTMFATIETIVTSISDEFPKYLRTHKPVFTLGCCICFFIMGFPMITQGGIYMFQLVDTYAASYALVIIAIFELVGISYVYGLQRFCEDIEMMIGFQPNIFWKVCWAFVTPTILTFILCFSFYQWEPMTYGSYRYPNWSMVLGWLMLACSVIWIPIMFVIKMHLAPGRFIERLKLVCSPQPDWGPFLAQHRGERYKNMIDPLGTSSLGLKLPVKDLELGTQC
Excerpt: (§1) GlyT2a (referred to herein as GlyT2) was subcloned into the plasmid oocyte transcription vector (pOTV) for expression in Xenopus laevis oocytes. Oligonucleotide primers incorporating desired mutations were synthesized by Sigma-Aldrich and used to generate point mutations in the GlyT2 cDNA/pOTV construct using the Q5 site-directed mutagenesis kit (New England Biolabs [Genesearch]). Amplified PCR products were transformed into chemically competent E. coli cells and purified using the GeneJET Plasmid Miniprep Kit (Thermo Fisher Scientific). Purified plasmid DNA was sequence-verified by the Australian Genome Research Facility. pOTV constructs were linearized with the restriction enzyme SpeI (New England Biolabs [Genesearch]), and RNA was transcribed by T7 RNA polymerase using the mMESSAGE mMACHINE T7 kit (Thermo Fisher Scientific).
(§2) The transport activity of GlyT2 is an electrogenic process as it couples the transport of glycine to the co-transport of 3 Na^+ and 1 Cl^− and thus can be measured using two-electrode voltage-clamp electrophysiology. Oocytes expressing GlyTs were voltage-clamped at −60 mV, and glycine-induced whole-cell currents were measured using a GeneClamp 500 amplifier (Axon Instruments), and a PowerLab 2/26 chart recorder (ADInstruments) and LabChart Software (ADInstruments).
(§3) Functionality of WT and mutant GlyT2 transporters was assessed by applying increasing concentrations of glycine (1–3,000 µM) in ND96 until a stable current was achieved. Glycine concentrations were applied individually and completely removed from the system via washing with recording buffer before proceeding to the next concentration. EC50 values for each transporter were determined by fitting concentration–response data to the modified Michaelis–Menten equation: I=([Gly].Imax)/(EC50+[Gly]), where I is current in nA, [Gly] is the concentration of glycine, Imax is the current generated by a maximal concentration of glycine, and EC50 is the concentration of glycine that generates a half-maximal current.

GlyT2 F515V mutant = GlyT2 F515V mutant (Homo sapiens, UniProt Q9Y345, F515V); conditions: read-out: Glycine EC50; F515V (TM7)
GlyT2 F515V mutant, sequence (Q9Y345 whole entry F515V): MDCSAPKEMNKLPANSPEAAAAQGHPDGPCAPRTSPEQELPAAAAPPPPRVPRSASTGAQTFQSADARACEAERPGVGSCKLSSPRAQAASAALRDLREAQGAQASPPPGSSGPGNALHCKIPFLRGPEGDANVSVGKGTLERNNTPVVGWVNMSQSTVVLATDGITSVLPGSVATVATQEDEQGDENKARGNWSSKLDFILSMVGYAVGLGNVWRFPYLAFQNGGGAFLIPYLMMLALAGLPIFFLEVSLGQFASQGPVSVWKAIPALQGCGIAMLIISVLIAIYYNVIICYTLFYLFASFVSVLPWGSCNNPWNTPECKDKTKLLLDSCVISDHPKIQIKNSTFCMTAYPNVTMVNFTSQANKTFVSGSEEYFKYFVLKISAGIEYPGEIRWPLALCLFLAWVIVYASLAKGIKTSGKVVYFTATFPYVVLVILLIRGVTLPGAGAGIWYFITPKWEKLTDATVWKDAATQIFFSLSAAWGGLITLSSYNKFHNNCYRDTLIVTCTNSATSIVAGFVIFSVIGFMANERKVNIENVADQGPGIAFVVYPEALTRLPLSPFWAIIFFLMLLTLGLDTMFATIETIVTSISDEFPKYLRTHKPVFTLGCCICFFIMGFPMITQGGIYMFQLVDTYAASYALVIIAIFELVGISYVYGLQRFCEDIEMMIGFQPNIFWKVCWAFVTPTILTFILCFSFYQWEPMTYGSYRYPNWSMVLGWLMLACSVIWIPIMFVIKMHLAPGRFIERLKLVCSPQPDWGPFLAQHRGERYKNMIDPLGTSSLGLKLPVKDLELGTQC
Excerpt: as §1, §2, §3

GlyT2 L198A mutant = GlyT2 L198A mutant (Homo sapiens, UniProt Q9Y345, L198A)
GlyT2 L198A mutant, sequence (Q9Y345 whole entry L198A): as the sequence (Q9Y345 whole entry F515V) above, with L198A, V515F counted along it
Excerpt: as §1, §2, §3

GlyT2 T512A mutant = molecular target: T2, GlyT2 T512A mutant (Homo sapiens, UniProt Q9Y345, T512A)
T2 sequence (Q9Y345 1-797 T512A): T1 sequence (Q9Y345 1-797 F515W) with T512A, W515F
Excerpt: as §1, §2, §3

What does the source list for `NCC(=O)O` [Glycine, glycine]?
EC50 (GlyT2 F515W mutant): 7.6 µM; EC50 (GlyT2 F515V mutant): 7.8 µM; Increase of glycine EC50 compared to WT (GlyT2 L198A mutant; L198A vs WT): 1.5 fold; EC50 (GlyT2 L198A mutant; read-out: Glycine EC50, L198A (TM1)): 28 µM; Reduction in apparent glycine affinity compared to WT (GlyT2 T512A mutant; T512A vs WT): 4.8 fold; EC50 (GlyT2 T512A mutant; read-out: Glycine EC50, T512A (TM7)): 90 µM
